This is an account of results in ChEMBL document CHEMBL4118185, “Kakeromamide A, a new cyclic pentapeptide inducing astrocyte differentiation isolated from the marine cyanobacterium Moorea bouillonii” (Bioorg Med Chem Lett, 2018).

Data set [1] deals with HeLa. Description: Cytotoxicity against human HeLa cells after 72 hrs by MTT assay. In kind it is functional, cell-based.
Data set [2] is described as follows: Cytotoxicity against mouse neuronal stem cells at 2.5 to 10 after 72 hrs. In kind it is cell-based.
The species named for data set [3] is Mus musculus. As to the kind of experiment: Induction of differentiation of mouse neuronal stem cells into astrocytes after 72 hrs by Hoechst 33342 staining based immunofluorescence assay. It counts as functional.
The species named for data set [4] is Mus musculus. As to the kind of experiment: Suppression of differentiation of mouse neuronal stem cells into neurons at 2.5 to 10 uM after 72 hrs by NeuO-Hoechst 33342 staining-based microscopic method. In kind it is functional.
For data set [5], the system named is P388. As to the kind of experiment: Cytotoxicity against mouse P388 cells at 10 uM after 72 hrs by MTT assay. In kind it is functional, cell-based. On the technique in general: Tetrazolium dyes change colour on reduction, which living cells bring about.

Activity calls are given as the source filed them. The calls are words filed in the database; no cut-off is given here.

`CCC[C@H]1NC(=O)c2csc(n2)[C@H](C(C)C)NC(=O)[C@H](Cc2ccc(OC)cc2)N(C)C(=O)[C@H](Cc2ccc(OC)cc2)N(C)C(=O)[C@H](C(C)C)NC(=O)[C@H]1C`: the IC50 – broadly, the point on the concentration scale where inhibition reaches its midpoint – in data set [1] was determined as 10 µM. Further, the values for the Activity entry in data set [2] and in data set [3] were “Non-Toxic” and “Dose-dependent effect”, respectively. The result in data set [4] was Active. Besides, the outcome in data set [5] was inactive.
